Assay results: article PMC11459966, “Oral pharmacokinetics and efficacy of oral phospholipid remdesivir nucleoside prodrugs against SARS-CoV-2 in mice” (Antimicrobial Agents and Chemotherapy, 2024)
Where two headings read alike, the source gives them in different places.

How the values were obtained:
[1] = design: method as in PMID 34937145; conditions: early administration, non-hospitalized high-risk individuals ref 5; cited from earlier work
[2] = tested on: SARS-CoV-2 isolate USA-WA1/2020; assay: microbe, parasite or virus in culture; type: cell-based
[3] = tested on: Vero-TMPRSS2 cells; assay: Cell viability assay (CellTiter-Glo), Vero-TMPRSS2; type: cell-based, African green monkey; conditions: 48 h incubation
Method: Cell viability assays (Table 1) were performed as previously described ([7]). Cells were cultured and seeded as per in vitro antiviral studies in opaque walled 96-well cell culture plates and incubated overnight for Huh7.5, A2T2-A549, and Vero-E6-TMPRSS2 cells and for 2 days for Calu-3 cells. Compounds or controls were added at the indicated concentrations in a total volume of 100 µL, and cells were incubated for 48 h. An equal volume of CellTiter-Glo reagent (Promega, Cat. #G7570) or CellTiter-Glo 2.0 reagent (Promega, Cat. #G9241) was added and mixed, and luminescence was recorded on a Veritas Microplate Luminometer (Turner BioSystems) or a Spark Multimode plate reader (Tecan) according to manufacturer instructions. Percent viability was normalized to DMSO controls, and CC50 values were derived from best fit curves calculated in Prism 10.

[4] = 5-day oral tolerability study with terminal pharmacokinetics in BALB/c mice; type: in vivo; conditions: 80 mg/kg or 100 mg/kg daily PO
Method: Fig 3 Oral RVn prodrugs maintain high serum levels after repeated dosing in mice and hamsters. Multiple-dose oral tolerability and pharmacokinetics in mice and Syrian hamsters: (A and B) 5-day oral tolerability study in BALB/c mice with pharmacokinetics obtained after the final dose. Male 20–22 g mice were given the indicated drugs at (A) 80 mg/kg or (B) 100 mg/kg PO daily in 0.1 M sodium carbonate/bicarbonate pH 9 for 5 days. Plasma was obtained after the last dose at 1, 3, 6, and 12 h (In Vivo Technologies, Moffatt Field, CA). (C) 7-day oral tolerability study in Syrian hamsters with pharmacokinetics obtained after the final dose. […] All plasma samples were analyzed to determine prodrug levels (Aliri Bio, Colorado Springs, CO).
After fortification, 50 µL of plasma was crashed with 400 µL of methanol containing 10 ng/mL of the internal standard (V2066). One hundred fifty microliters of the supernatant was removed and diluted with 150 µL of water in a clean 96 well injection plate.
Chromatography for the prodrugs was performed on a Raptor Biphenyl (2.1 × 50) column at a flow rate of 0.5 mL/min. A gradient method starting at 60% B (0.1% formic acid in 90:10 methanol:acetonitrile) for 30 s and then ramping to 95% B over 2.5 min. This composition was held for 1.0 min before being returned to starting conditions and re-equilibration to 40% A (10 mM ammonium formate with 0.2% formic acid in water).
Oral pharmacokinetic studies were carried out at In Vivo Technologies (Moffatt Field, CA) in male BALB/c mice, 22–23 g under IACUC protocol number IVT-11–010Y12 (LifeSource Animal Care and Use Committee). […] Blood was obtained by facial vein or terminal cardiac puncture at the indicated times and plasma was frozen for analysis. Similar procedures were followed for 5-day tolerability and terminal dose pharmacokinetic studies in mice at oral daily doses of 80 or 100 mg/kg.

[5] = tested on: SARS-CoV-2 isolate USA-WA1/2020
[6] = tested on: SARS-CoV-2 isolate USA-WA1/2020; remark: listed apart in the source
[7] = tested on: SARS-CoV-2 isolate USA-WA1/2020; remark: listed apart in the source
[8] = tested on: SARS-CoV-2 isolate USA-WA1/2020; design: method as in PMID 37040439; conditions: Calu-3, dotted lines of Fig. 2 and 3 ref 7; read-out: in vitro EC90 for SARS-CoV-2 infection in Calu-3 cells; cited from earlier work
[9] = tested on: Calu-3 cells; design: method as in PMID 37040439; conditions: Calu-3, CellTiter-Glo, previously published, identical conditions ref 7; cited from earlier work
[10] = tested on: Huh7.5 cells; design: method as in PMID 37040439; conditions: Huh7.5, CellTiter-Glo, previously published, identical conditions ref 7; cited from earlier work
[11] = tested on: A2T2-A549 cells; assay: Cell viability assay (CellTiter-Glo), A2T2-A549; conditions: A2T2-A549, CellTiter-Glo, 48 h incubation
[12] = Single dose PO or IV plasma pharmacokinetics and tolerability in BALB/c mice; conditions: BALB/c mice
[13] = design: method as in PMID 38776389; conditions: twice daily oral 30 mg/kg doses, BALB/c mice ref 10; cited from earlier work
[14] = tested on: SARS-CoV-2 isolate USA-WA1/2020; assay: microbe, parasite or virus in culture

CCC(CC)COC(=O)[C@H](C)N[P@](=O)(OC[C@H]1O[C@@](C#N)(c2ccc3c(N)ncnn23)[C@H](O)[C@@H]1O)Oc1ccccc1 [remdesivir]
decrease of the risk of hospitalization or death [1]: 87%

CCCCCCCCC=CCCCCCCCCOCC(COP(=O)(O)OCC1OC(C#N)(c2ccc3c(N)ncnn23)C(O)C1O)OCc1ccc(OC)c(F)c1 (stereo not drawn) [Compound V2053]
Relative activity vs RVn (RVN EC50/Test Compound EC50) ([2]; Calu-3): 9.0×
EC50 ([2]; Calu-3 cells, 44–48 hpi): 0.074 ± 0.014 µM
EC90 ([2]; Calu-3 cells, 44–48 hpi): 0.153 ± 0.047 µM
CC50 [3]: > 100 µM
tolerability of once-daily oral doses for 5 days [4]: no adverse clinical effects were noted
Relative activity vs RVn (RVN EC50/Test Compound EC50) ([5]; A2T2-A549): 7.3×
SI (CC50/EC50) ([5]; A2T2-A549): >243
EC50 ([5]; read-out: EC50 μM ± SD, A2T2-A549 cells, 48 hpi): 0.41 ± 0.04 µM
EC90 ([5]; read-out: EC90 μM ± SD, A2T2-A549 cells, 48 hpi): 0.811 ± 0.059 µM
Relative activity vs RVn (RVN EC50/Test Compound EC50) ([6]; Huh7.5): 28.9×
SI (CC50/EC50) ([6]; Huh7.5): >2,128
EC50 ([6]; read-out: EC50 μM ± SD, Huh7.5 cells, 48 hpi): 0.047 ± 0.015 µM
EC90 ([6]; read-out: EC90 μM ± SD, Huh7.5 cells, 48 hpi): 0.136 ± 0.058 µM
Relative activity vs RVn (RVN EC50/Test Compound EC50) ([7]; Vero-TMPRSS2): 8.0×
SI (CC50/EC50) ([7]; Vero-TMPRSS2): >746
EC50 ([7]; read-out: EC50 μM ± SD, Vero-TMPRSS2 cells, 32 hpi): 0.134 ± 0.05 µM
EC90 ([7]; read-out: EC90 μM ± SD, Vero-TMPRSS2 cells, 32 hpi): 0.367 ± 0.139 µM
EC90 [8]: 154 nM
CC50 [9]: 58.7 µM
CC50 [10]: > 100 µM
CC50 [11]: > 100 µM
tolerability of single escalating oral doses ([12]; 20, 60 or 180 mg/kg single oral dose): well tolerated with no appreciable adverse effects
AUC ([12]; IV, 7 mg/kg, plasma): 9.58 µM·h
Cmax ([12]; IV, 7 mg/kg, plasma): 30.2 µM
T1/2 ([12]; IV, 7 mg/kg, plasma): 0.29 h
AUC ([12]; Oral, 20 mg/kg): 13.60 µM·h
CL/F ([12]; Oral, 20 mg/kg): 1.68 L/kg/h
Cmax ([12]; Oral, 20 mg/kg): 1.78 µM
T1/2 ([12]; Oral, 20 mg/kg): 6.04 h
Vd/F ([12]; Oral, 20 mg/kg): 14.60 L/kg
AUC ([12]; Oral, 60 mg/kg): 53.10 µM·h
CL/F ([12]; Oral, 60 mg/kg): 1.34 L/kg/h
Cmax ([12]; Oral, 60 mg/kg): 7.66 µM
T1/2 ([12]; Oral, 60 mg/kg): 3.44 h
Vd/F ([12]; Oral, 60 mg/kg): 6.67 L/kg
AUC ([12]; Oral, 180 mg/kg): 90.80 µM·h
CL/F ([12]; Oral, 180 mg/kg): 1.81 L/kg/h
Cmax ([12]; Oral, 180 mg/kg): 12.5 µM
T1/2 ([12]; Oral, 180 mg/kg): 7.06 h
Vd/F ([12]; Oral, 180 mg/kg): 18.50 L/kg
F% (oral bioavailability) ([12]; oral vs IV (7 mg/kg) prodrug exposure, printed on the 20 mg/kg oral lines): 51.0%

CC(C)C(=O)OC[C@H]1O[C@@](C#N)(c2ccc3c(N)ncnn23)[C@H](O)[C@@H]1O [Obeldesivir GS-5245, reference compound]
daily systemic exposure [13]: 108 µM·h
EC50 ([14]; Severe acute respiratory syndrome coronavirus 2, read-out: EC50 μM ± SD): 1.2 ± 0.084 µM
EC90 ([14]; Severe acute respiratory syndrome coronavirus 2, read-out: EC90 μM ± SD): 1.89 ± 0.46 µM
